Here are results for three compounds from patent publication US20230123585A1, “COMPOSITIONS AND METHODS FOR TREATING OR PREVENTING CANCER USING DEUBIQUITINASE INHIBITORS” (The University of Chicago, priority 2020, published 2023).

One assay concerns A375 and HCT116 cells. Description: Cell viability by SRB assay of A375 and HCT116 cells treated with Ezh2 inhibitors without or with EOAI. Conditions: 48 hr; A375: GSK343 10 μM, UNC1999 5 μM, 0.5 μM EOAI; HCT116: GSK343 10 μM, UNC1999 10 μM, 1 μM EOAI. It is filed as cell-based. As for the experimental part:
FIGS. 20A-20B: (A) A375 cells were treated with GSK343 10 μM, UNC1999 5μM without or with 0.5 μM EOAI3402143 (EOAI) for 48 hr before measuring cell viability by SRB assay. Data are presented as relative to the R-WT cells without drug treatment (n=3 per group, data represent mean±SEM). (B) HCT116 cells were treated with GSK343 10 μM, UNC1999 10 μM without or with 1 μM EOAI3402143 (EOAI) for 48 hr before measuring cell viability by SRB assay. Data are presented as relative to the R-WT cells without drug treatment (n=3 per group, data represent mean±SEM).
Cell Proliferation Assay. Cells were seeded in 96-well plates. The cell proliferation was assessed by SRB assay (Vichai and Kirtikara, 2006) at various time points. Briefly, cells after treatments were fixed with 10% TCA then stained with 0.05% SRB. After wash, bound SRB was solubilized with 10 mM Trizma base and measured at 515 nm.
A general note: Sulforhodamine B stains cellular protein and so reports cell mass.

Another assay deals with ubiquitination of METTL3. Description: Ubiquitination of METTL3 in A375 cells transfected with HA-ubiquitin (IP anti-METTL3, immunoblot anti-HA). It is filed as cell-based, human. To be noted: 10 μM MG-132 and 10 μM EOAI3402143 or 30 μM vialinin A for 8 h. How it is done: (§1) FIGS. 11A-11G: USP5 is Required for ERK-Mediated METTL3 Stabilization. (A) A375 cells transfected with HA-ubiquitin (ub) were treated with 10 μM MG-132 and MEK inhibitor PD0325901 for 8 h. The ubiquitination of METTL3 was detected by IP with anti-METTL3 and immunoblot with anti-HA. (B) After 8 h treatment with 10 μM PD0325901 with or without 10 μM MG-132, cell lysates from A375 cells were analyzed by immunoblot. (C) A375 cells were treated with various concentrations of PD0325901 for 1 h. Cell lysates were subjected to IP with METTL3 antibody followed by immunoblot. (D) 293T cells transfected as indicated were subjected to IP/immunoblot analysis. (E) Immunofluorescence analysis of myc-METTL3 (green) in mESC stable transfectants. DAPI (blue) was used to mark the nucleus. (F) Lysates of 293T cells transfected as indicated were subjected to IP with anti-Flag antibody followed by immunoblot. (G) Immunofluorescence analysis of 293T cells co-transfected with myc-METTL3 (green), Flag-USP5 (red) with or without constitutively active B-RAF.
FIGS. 14A-14I: Phosphorylation of the m^6A Methyltransferase Complex May Affect Tumorigenesis. […] (B) LC-MS/MS quantification of the m^6A/A ratio in mRNA of melanoma cell lines. (C) After 8 h treatment with 10 μM PD0325901 or 0.1 μM tramentib, cell lysates from HCT-116 cells were analyzed by immunoblot. […] The ubiquitination of METTL3 was detected by IP with anti-METTL3 and immunoblot with anti-HA. (F) After 8 hr treatment with 10 μM EOAI3402143 (EOAI) or 30 μM vialinin A, cell lysates from HCT-116 cells were analyzed by immunoblot. […] (I) LC-MS/MS quantification of the m^6A/A ratio in mRNA of breast cancer cell lines.
Immunoprecipitation, immunoblotting, and in vitro kinase assay. […] Primary antibodies were detected by HRP-linked secondary antibodies (Cell Signaling) together with SuperSignal West Pico Plus chemiluminescent substrate (Thermo Scientific) and imaged in a FluorChem R system (ProteinSimple).
In general terms: In western blotting, separated proteins are transferred to a membrane and probed.

In assay [1] the test system is A375 and HCT-116 stable transfectants. The assay is described as follows: Cell viability by SRB assay of A375 and HCT-116 stable transfectants treated with USP5 inhibitors. In kind it is cell-based. To be noted: A375 1 μM, HCT-116 2 μM EOAI, 48 hr. As for the experimental part: FIGS. 6A-6H: Phosphorylation of the m^6A Methyltransferase Complex May Affect Tumorigenesis. (A) Lysates of A375 stable transfectants harvested at different time points after treatment with cycloheximide (CHX) 10 μg/ml were analyzed by immunoblot. (B) LC-MS/MS quantification of the m^6A/A ratio in mRNA of A375 stable transfectants. (C) After 8 h treatment with 10 μM PD0325901 or 0.1 μM tramentib, cell lysates from A375 cells were analyzed by immunoblot. (D) LC-MS/MS quantification of the m^6A/A ratio in mRNA of A375 cells treated with 10 μM PD0325901 or 0.1 μM tramentib for 48 h. (E) After 8hr treatment with 10 μM EOAI3402143 (EOAI) or 30 μM vialinin A , cell lysates from A375 cells were analyzed by immunoblot. […] (H) LC-MS/MS quantification of the m^6A/A ratio in mRNA of SKBR3 and BT474 cells treated with 1 μM tucatinib and 1 μM lapatinib for 48 h. […]
FIGS. 14A-14I: Phosphorylation of the m^6A Methyltransferase Complex May Affect Tumorigenesis. […] (B) LC-MS/MS quantification of the m^6A/A ratio in mRNA of melanoma cell lines. (C) After 8 h treatment with 10 μM PD0325901 or 0.1 μM tramentib, cell lysates from HCT-116 cells were analyzed by immunoblot. […] The ubiquitination of METTL3 was detected by IP with anti-METTL3 and immunoblot with anti-HA. (F) After 8 hr treatment with 10 μM EOAI3402143 (EOAI) or 30 μM vialinin A, cell lysates from HCT-116 cells were analyzed by immunoblot. […]

For assay [2], the system named is METTL3 / m^6A methyltransferase complex in A375 cells. Description: Immunoblot of METTL3 / m^6A methyltransferase complex protein in A375 cell lysates. In kind it is cell-based, human. Conditions: A375 cells (also HCT-116, FIG. 14F), 8 hr, 10 μM EOAI3402143 or 30 μM vialinin A. As for the experimental part:
FIGS. 6A-6H: Phosphorylation of the m^6A Methyltransferase Complex May Affect Tumorigenesis. (A) Lysates of A375 stable transfectants harvested at different time points after treatment with cycloheximide (CHX) 10 μg/ml were analyzed by immunoblot. (B) LC-MS/MS quantification of the m^6A/A ratio in mRNA of A375 stable transfectants. (C) After 8 h treatment with 10 μM PD0325901 or 0.1 μM tramentib, cell lysates from A375 cells were analyzed by immunoblot. (D) LC-MS/MS quantification of the m^6A/A ratio in mRNA of A375 cells treated with 10 μM PD0325901 or 0.1 μM tramentib for 48 h. (E) After 8hr treatment with 10 μM EOAI3402143 (EOAI) or 30 μM vialinin A , cell lysates from A375 cells were analyzed by immunoblot. (F) A375 stable transfectants as indicated were treated with 3 μM EOAI3402143 (EOAI) or 10 μM vialinin A before measuring cell viability by SRB assay. Data are presented as relative to the R-WT cells without drug treatment (n=3 per group, data represent mean±SEM). (G) Immunofluorescence analysis of METTL3 (green) in SKBR3 cells treated with 1 μM tucatinib and 1 μM lapatinib for 8 hr. DAPI (blue) was used to mark the nucleus. (H) LC-MS/MS quantification of the m^6A/A ratio in mRNA of SKBR3 and BT474 cells treated with 1 μM tucatinib and 1 μM lapatinib for 48 h. (See also FIG. 14.)
as §1
Immunoprecipitation, immunoblotting, and in vitro kinase assay. Immunoprecipitation (IP) and immunoblotting (IB) were performed as previously described (Sun et al., 2016). In brief, protein samples were isolated from respective cells by lysis in RIPA buffer (1% Triton X-100, 150 mM NaCl, 20 mM Na2PO4, pH 7.4) containing Halt Protease and Phosphatase Inhibitor Cocktail (Thermo Scientific). Subsequently, a BCA assay (Thermo Scientific) was used to determine the protein concentrations. For IP, indicated antibody and protein A/G magnetic beads (Thermo Scientific) were incubated with lysate at 4° C. overnight followed by washing and elution with sample buffer. Equal amounts of protein were separated by SDS-PAGE followed by wet transfer to PVDF membranes. Blots were blocked with 5% non-fat milk or BSA and incubated with respective primary antibody at 4° C. overnight. Primary antibodies were detected by HRP-linked secondary antibodies (Cell Signaling) together with SuperSignal West Pico Plus chemiluminescent substrate (Thermo Scientific) and imaged in a FluorChem R system (ProteinSimple).

For `CCCc1cc(C)[nH]c(=O)c1CNC(=O)c1cc(-c2ccnc(N3CCN(C)CC3)c2)cc2c1cnn2C(C)C` [GSK343], in the assay with A375 and HCT116 cells, the “combination effect on cell viability with the USP5 inhibitor EOAI” value is “synergism”.
`CCCC(NC(=O)/C(C#N)=C/c1nc(Cl)ccc1Cl)c1ccc(OCCN2CCOCC2)cc1` (stereo not drawn) [EOAI3402143]: in the assay with ubiquitination of METTL3, the “ubiquitination of METTL3” value is listed as “increased”. Moreover, in assay [1], the “effect of knockdown of METTL3 on sensitivity of cells to the USP5 inhibitor” value is listed as “sensitized” and the “effect of overexpression of METTL3 on sensitivity of cells to the USP5 inhibitor” value is “attenuated”. The METTL3 protein level entry in assay [2] was “decreased”.
As to `CCCc1cc(C)[nH]c(=O)c1CNC(=O)c1cc(-c2ccc(N3CCN(C(C)C)CC3)nc2)cc2c1cnn2C(C)C` [UNC199], the “combination effect on cell viability with the USP5 inhibitor EOAI” value with A375 and HCT116 cells is “synergism”.
